Among the data in ChEMBL document CHEMBL1139638, “Synthesis and biological evaluation of chalcones and their derived pyrazoles as potential cytotoxic agents” (Bioorg Med Chem Lett, 2005) are IC50 values, retold here.

Where “and” joins values, the source holds several entries; their conditions need not be identical. Equal values may be shown once.

Experiment [1] relates to HT-29. In words: Antiproliferative activity against Colon cancer HT-29 cell line. In kind it is functional, cell-based, Homo sapiens.
Experiment [2] concerns A549. In words: Antiproliferative activity against human cancer A-549 cell line. The experiment is classed as functional, cell-based.
The subject of experiment [3] is HOP-62. As to the kind of experiment: Antiproliferative activity against human cancer HOP-62 cell line. The experiment is classed as functional, cell-based.
Experiment [4] concerns OVCAR-5. As to the kind of experiment: Antiproliferative activity against human cancer OVCAR-5 cell line. In kind it is functional, cell-based.
Experiment [5] has as its system SW-620. In words: Inhibitory concentration against human colon cancer SW-620 cell line. The experiment is classed as functional, cell-based.
For experiment [6], the system named is HCT-15. As to the kind of experiment: Antiproliferative activity against human colon cancer HCT-15 cell line. In kind it is functional, cell-based.
Experiment [7] concerns SiHa. As to the kind of experiment: Antiproliferative activity against human SIHA cell line. In kind it is functional, cell-based.
Experiment [8] has as its system HEp-2. As to the kind of experiment: Antiproliferative activity against human cancer Hep-2 cell line. The experiment is classed as functional, cell-based.
Experiment [9] has as its system DU-145. In words: Antiproliferative activity against human cancer DU-145 cell line. In kind it is functional, cell-based.
The test system of experiment [10] is SNB-78. In words: Antiproliferative activity against human cancer SNB-78 cell line. In kind it is functional, cell-based.
Experiment [11] concerns PC-3. As to the kind of experiment: Antiproliferative activity against prostate cancer PC-3 cell line. The experiment is classed as functional, cell-based, Homo sapiens.

With `COc1ccc(-c2cc(-c3cc(OC)c(OC)c(OC)c3)nn2C(C)=O)cc1OC`, the IC50 in experiment [1] (Homo sapiens, HT-29) was 10.4 µM; in experiment [2] (Homo sapiens, A549), 10 µM; in experiment [3] (Homo sapiens, HOP-62) it was 22.1 µM; in [4] (Homo sapiens, OVCAR-5), 16.7 µM; in experiment [5] (Homo sapiens, SW-620), 16.1 µM; in [6], 16 µM. In experiment [7] (Homo sapiens, SiHa), this compound had an IC50 of 54.8 µM.
Consider `COc1cc(C(=O)/C=C/c2ccc(Cl)cc2)cc(OC)c1OC`, for which the IC50 turned out to be 12 µM in experiment [8]; 28.1 µM in [9] (Homo sapiens, DU-145); 26.9 µM in [3] (Homo sapiens, HOP-62); 25.4 µM in experiment [10] (Homo sapiens, SNB-78); 16.8 µM in experiment [4] (Homo sapiens, OVCAR-5); 24.1 µM in [11] (Homo sapiens, PC-3). Further, the IC50 in [6] came out at 24 µM; in experiment [7] (Homo sapiens, SiHa), 40 µM.
`COc1cc(C2=NNC(c3cc(OC)c(OC)c(OC)c3)C2O)cc(OC)c1OC` (stereo not drawn): the IC50 in experiment [1] (Homo sapiens, HT-29) came to 7.41 µM; in experiment [2] (Homo sapiens, A549), 15.6 µM; in experiment [9] (Homo sapiens, DU-145), 94.1 µM; in [3] (Homo sapiens, HOP-62) it was 20.4 µM; in [4] (Homo sapiens, OVCAR-5) it was 20.6 µM; in experiment [11] (Homo sapiens, PC-3), 108 µM. Besides, the IC50 was 13.6 µM in [5] (Homo sapiens, SW-620); 8.35 µM in experiment [6]; 83 µM in experiment [7] (Homo sapiens, SiHa).
In the case of `COc1cccc(C2NN=C(c3cc(OC)c(OC)c(OC)c3)C2O)c1` (stereo not drawn), the IC50 was 5.95 µM in experiment [1] (Homo sapiens, HT-29); 7.2 µM in experiment [2] (Homo sapiens, A549); 8.1 µM in experiment [3] (Homo sapiens, HOP-62); 7.05 µM in experiment [4] (Homo sapiens, OVCAR-5); 28 µM in experiment [11] (Homo sapiens, PC-3); 7.35 µM in experiment [5] (Homo sapiens, SW-620). This compound also came in with an IC50 in [6] of 7.85 µM.
On to `COc1ccc(C2NN=C(c3cc(OC)c(OC)c(OC)c3)C2O)cc1` (stereo not drawn), for which the IC50 in experiment [1] (Homo sapiens, HT-29) is 0.96 µM; in experiment [2] (Homo sapiens, A549) it was 1.07 µM; in experiment [8], 7.81 µM; in experiment [3] (Homo sapiens, HOP-62), 0.94 µM; in [4] (Homo sapiens, OVCAR-5), 13 µM; in experiment [11] (Homo sapiens, PC-3), 15.2 µM. Moreover, the IC50 in experiment [5] (Homo sapiens, SW-620) came out at 2.67 µM; in [6] it was 0.96 µM; in [7] (Homo sapiens, SiHa), 20.1 µM.
Take `COc1cc(C(=O)/C=C/c2ccc3c(c2)OCO3)cc(OC)c1OC`: the IC50 worked out at 10.1 µM in experiment [8]; 19.8 µM in experiment [9] (Homo sapiens, DU-145); 9.61 µM in experiment [3] (Homo sapiens, HOP-62); 16.7 µM in [10] (Homo sapiens, SNB-78); 5.65 µM in experiment [4] (Homo sapiens, OVCAR-5); 11.7 µM in [11] (Homo sapiens, PC-3). The IC50 worked out at 23.7 µM in experiment [6] and 12.8 µM in experiment [7] (Homo sapiens, SiHa).
For the compound `COc1cc(C2=NNC(c3ccc4c(c3)OCO4)C2O)cc(OC)c1OC` (stereo not drawn), the IC50 in [1] (Homo sapiens, HT-29) amounted to 5.89 µM; in experiment [2] (Homo sapiens, A549) it was 6.74 µM; in [8] it was 40 µM; in experiment [9] (Homo sapiens, DU-145) it was 34.7 µM; in [3] (Homo sapiens, HOP-62) it was 20.3 µM; in [10] (Homo sapiens, SNB-78) it was 53.7 µM. Moreover, the IC50 in experiment [4] (Homo sapiens, OVCAR-5) turned out to be 6.81 µM; in [11] (Homo sapiens, PC-3) it was 34.5 µM; in experiment [5] (Homo sapiens, SW-620) it was 6.75 µM; in experiment [7] (Homo sapiens, SiHa) it was 43 µM.
In the case of `COc1ccc(-c2cc(-c3cc(OC)c(OC)c(OC)c3)[nH]n2)cc1`, the IC50 in [1] (ht-29) was 2.95 µM and 0.62 µM; in experiment [2] (a549), 4.35 µM and 1.01 µM; in experiment [9] (Homo sapiens, DU-145), 24 µM; in [9] (du-145), 27 µM; in [3] (hop-62) it was 4.81 µM and 0.65 µM; in [10] (snb-78), 21 µM and 50 µM. For the same compound, the IC50 in [4] (Homo sapiens, OVCAR-5) came to 9.54 µM; in experiment [4] (ovcar-5), 7.85 µM; in experiment [11] (Homo sapiens, PC-3) it was 15.8 µM; in experiment [11] (pc-3), 11.1 µM; in experiment [5] (Homo sapiens, SW-620), 5.15 µM; in experiment [5] (sw-620), 3.41 µM. The IC50 was determined as 15.9 µM in experiment [7] (Homo sapiens, SiHa) and 14.5 µM in experiment [7] (siha).
As to `COc1ccc(C2NN=C(c3cc(OC)c(OC)c(OC)c3)C2O)cc1OC` (stereo not drawn), the IC50 is 8.43 µM in experiment [1] (Homo sapiens, HT-29); 10 µM in experiment [2] (Homo sapiens, A549); 10.7 µM in experiment [3] (Homo sapiens, HOP-62); 8.76 µM in experiment [4] (Homo sapiens, OVCAR-5); 8.63 µM in [5] (Homo sapiens, SW-620); 12 µM in experiment [6].
For `COc1cc(-c2cc(-c3ccc(Cl)cc3)[nH]n2)cc(OC)c1OC`, the IC50 is 8.09 µM in [1] (Homo sapiens, HT-29); 15.8 µM in [2] (Homo sapiens, A549); 12.3 µM in experiment [3] (Homo sapiens, HOP-62); 14 µM in [10] (Homo sapiens, SNB-78); 8.61 µM in experiment [4] (Homo sapiens, OVCAR-5); 4.96 µM in [5] (Homo sapiens, SW-620). This compound also showed an IC50 in [6] of 6.45 µM.
With `COc1cc(-c2cc(-c3cc(OC)c(OC)c(OC)c3)[nH]n2)cc(OC)c1OC`, the IC50 came out at 5.62 µM in [1] (Homo sapiens, HT-29); 7.58 µM in [2] (Homo sapiens, A549); 6.43 µM in experiment [8]; 35.1 µM in [9] (Homo sapiens, DU-145); 22 µM in experiment [10] (Homo sapiens, SNB-78); 9.95 µM in experiment [4] (Homo sapiens, OVCAR-5). Further, the IC50 in experiment [11] (Homo sapiens, PC-3) was found to be 13.3 µM; in [5] (Homo sapiens, SW-620), 10 µM; in experiment [6], 6.01 µM; in experiment [7] (Homo sapiens, SiHa) it was 25 µM.
As to `COc1cc(/C=C/C(=O)c2cc(OC)c(OC)c(OC)c2)cc(OC)c1OC`, the IC50 is 7.75 µM in experiment [8]; 10 µM in experiment [3] (Homo sapiens, HOP-62); 9.23 µM in experiment [4] (Homo sapiens, OVCAR-5); 6.55 µM in experiment [6]; 8.55 µM in experiment [7] (Homo sapiens, SiHa).
As to `COc1cc(C2=NNC(c3ccc(Cl)cc3)C2O)cc(OC)c1OC` (stereo not drawn), the IC50 in experiment [1] (Homo sapiens, HT-29) is 11.1 µM; in experiment [2] (Homo sapiens, A549), 15.1 µM; in experiment [3] (Homo sapiens, HOP-62) it was 20.4 µM; in experiment [4] (Homo sapiens, OVCAR-5), 8.65 µM; in [11] (Homo sapiens, PC-3), 34.6 µM; in experiment [5] (Homo sapiens, SW-620), 8.41 µM. Further, the IC50 turned out to be 9.45 µM in experiment [6] and 56.4 µM in [7] (Homo sapiens, SiHa).
On to `COc1ccc(-c2cc(-c3cc(OC)c(OC)c(OC)c3)[nH]n2)cc1OC`, for which the IC50 turned out to be 0.47 µM in experiment [1] (Homo sapiens, HT-29); 0.87 µM in experiment [2] (Homo sapiens, A549); 8.41 µM in experiment [8]; 0.93 µM in experiment [3] (Homo sapiens, HOP-62); 4.4 µM in experiment [4] (Homo sapiens, OVCAR-5); 2.64 µM in experiment [11] (Homo sapiens, PC-3). Moreover, the IC50 in experiment [5] (Homo sapiens, SW-620) was determined as 0.23 µM; in experiment [6] it was 0.25 µM; in experiment [7] (Homo sapiens, SiHa), 3.63 µM.
Consider `COc1cc(C2=NNC(c3ccc(F)cc3)C2O)cc(OC)c1OC` (stereo not drawn), for which the IC50 in experiment [1] (Homo sapiens, HT-29) amounted to 6.01 µM; in [2] (Homo sapiens, A549), 5.72 µM; in experiment [3] (Homo sapiens, HOP-62) it was 6.55 µM; in [4] (Homo sapiens, OVCAR-5) it was 7.15 µM; in experiment [5] (Homo sapiens, SW-620), 5.85 µM; in [6], 8.45 µM.
As to `COc1cc(C(=O)/C=C/c2cc(OC)c(OC)c(OC)c2)ccc1O`, the IC50 in experiment [1] (Homo sapiens, HT-29) was 20.2 µM; in experiment [2] (Homo sapiens, A549), 19.2 µM; in [8] it was 6.01 µM; in experiment [3] (Homo sapiens, HOP-62), 20.2 µM; in experiment [6] it was 7.75 µM; in experiment [7] (Homo sapiens, SiHa), 40.4 µM.
In the case of `COc1cc(C(=O)/C=C/c2ccc(F)cc2)cc(OC)c1OC`, the IC50 is 10 µM in experiment [8]; 13.3 µM in [9] (Homo sapiens, DU-145); 24.7 µM in experiment [3] (Homo sapiens, HOP-62); 13.8 µM in experiment [10] (Homo sapiens, SNB-78); 18.3 µM in experiment [4] (Homo sapiens, OVCAR-5); 11.7 µM in [11] (Homo sapiens, PC-3). Also, the IC50 in [6] was 11.7 µM; in [7] (Homo sapiens, SiHa), 7.92 µM.
For the compound `COc1cc(/C=C/C(=O)c2ccc(OC(C)=O)cc2)cc(OC)c1OC`, the IC50 in [1] (Homo sapiens, HT-29) is 8.37 µM; in [2] (Homo sapiens, A549), 12 µM; in experiment [8], 13.1 µM; in [3] (Homo sapiens, HOP-62) it was 56.1 µM; in [6], 7.75 µM; in [7] (Homo sapiens, SiHa), 13.3 µM.
For `COc1cccc(C(=O)/C=C/c2cc(OC)c(OC)c(OC)c2)c1`, the IC50 came out at 7.08 µM in [1] (Homo sapiens, HT-29); 8.07 µM in experiment [2] (Homo sapiens, A549); 13.7 µM in experiment [8]; 14.9 µM in experiment [9] (Homo sapiens, DU-145); 10.1 µM in experiment [3] (Homo sapiens, HOP-62); 10 µM in [10] (Homo sapiens, SNB-78). The IC50 stood at 9 µM in experiment [4] (Homo sapiens, OVCAR-5); 11.6 µM in experiment [11] (Homo sapiens, PC-3); 4.9 µM in experiment [6]; 10.9 µM in [7] (Homo sapiens, SiHa).
